Key:
Test in all cases: KINOMEscan competition binding
Settings in all cases: compound 10.0 µM
RIPK4 (human) = RIPK4 (human) (UniProt P57078)
FGFR4 (human) = FGFR4 (human) (UniProt P22455)
ERBB2 (human) = ERBB2 (human) (UniProt P04626)
DAPK2 (human) = DAPK2 (human) (UniProt Q9UIK4)
ERBB4 (human) = ERBB4 (human) (UniProt Q15303)
[1] = test system: PIK3CA (human), P42336 [H1047L]
MAP2K2 (human) = MAP2K2 (human) (UniProt P36507)
RPS6KA6 KD2 (human) = RPS6KA6 KD2 (human) (UniProt Q9UK32)
EPHB2 (human) = EPHB2 (human) (UniProt P29323)
MAP3K13 (human) = MAP3K13 (human) (UniProt O43283)
FLT4 (human) = FLT4 (human) (UniProt P35916)
PRKD2 (human) = PRKD2 (human) (UniProt Q9BZL6)
[2] = test system: KIT (human), P10721 [D816H]
PLK2 (human) = PLK2 (human) (UniProt Q9NYY3)
MELK (human) = MELK (human) (UniProt Q14680)
MAK (human) = MAK (human) (UniProt P20794)
MAP3K9 (human) = MAP3K9 (human) (UniProt P80192)
PIK3C2G (human) = PIK3C2G (human) (UniProt O75747)
NEK9 (human) = NEK9 (human) (UniProt Q8TD19)
CDK19 (human) = CDK19 (human) (UniProt Q9BWU1)
MAP3K10 (human) = MAP3K10 (human) (UniProt Q02779)
DDR2 (human) = DDR2 (human) (UniProt Q16832)
CDC2L2 (human) = CDC2L2 (human) (UniProt Q9UQ88)
DCLK3 (human) = DCLK3 (human) (UniProt Q9C098)
MAP4K3 (human) = MAP4K3 (human) (UniProt Q8IVH8)
MET (human) = MET (human) (UniProt P08581)
SRPK3 (human) = SRPK3 (human) (UniProt Q9UPE1)
[3] = target: JAK1 JH2 pseudokinase (human) (UniProt P23458)
DSTYK (human) = DSTYK (human) (UniProt Q6XUX3)
AURKB (human) = AURKB (human) (UniProt Q96GD4)
RPS6KA1 KD2 (human) = RPS6KA1 KD2 (human) (UniProt Q15418)
PRKD3 (human) = PRKD3 (human) (UniProt O94806)
STK32C (human) = STK32C (human) (UniProt Q86UX6)
CDK5 (human) = CDK5 (human) (UniProt Q00535)
EPHB3 (human) = EPHB3 (human) (UniProt P54753)
RPS6KB1 (human) = RPS6KB1 (human) (UniProt P23443)
SNRK (human) = SNRK (human) (UniProt Q9NRH2)
[4] = target: JAK2 JH1 catalytic (human) (UniProt O60674)
MAPK1 (human) = MAPK1 (human) (UniProt P28482)
EGFR (human) = EGFR (human) (UniProt P00533)

PIK3C2G (human), sequence (O75747 whole entry, looked up): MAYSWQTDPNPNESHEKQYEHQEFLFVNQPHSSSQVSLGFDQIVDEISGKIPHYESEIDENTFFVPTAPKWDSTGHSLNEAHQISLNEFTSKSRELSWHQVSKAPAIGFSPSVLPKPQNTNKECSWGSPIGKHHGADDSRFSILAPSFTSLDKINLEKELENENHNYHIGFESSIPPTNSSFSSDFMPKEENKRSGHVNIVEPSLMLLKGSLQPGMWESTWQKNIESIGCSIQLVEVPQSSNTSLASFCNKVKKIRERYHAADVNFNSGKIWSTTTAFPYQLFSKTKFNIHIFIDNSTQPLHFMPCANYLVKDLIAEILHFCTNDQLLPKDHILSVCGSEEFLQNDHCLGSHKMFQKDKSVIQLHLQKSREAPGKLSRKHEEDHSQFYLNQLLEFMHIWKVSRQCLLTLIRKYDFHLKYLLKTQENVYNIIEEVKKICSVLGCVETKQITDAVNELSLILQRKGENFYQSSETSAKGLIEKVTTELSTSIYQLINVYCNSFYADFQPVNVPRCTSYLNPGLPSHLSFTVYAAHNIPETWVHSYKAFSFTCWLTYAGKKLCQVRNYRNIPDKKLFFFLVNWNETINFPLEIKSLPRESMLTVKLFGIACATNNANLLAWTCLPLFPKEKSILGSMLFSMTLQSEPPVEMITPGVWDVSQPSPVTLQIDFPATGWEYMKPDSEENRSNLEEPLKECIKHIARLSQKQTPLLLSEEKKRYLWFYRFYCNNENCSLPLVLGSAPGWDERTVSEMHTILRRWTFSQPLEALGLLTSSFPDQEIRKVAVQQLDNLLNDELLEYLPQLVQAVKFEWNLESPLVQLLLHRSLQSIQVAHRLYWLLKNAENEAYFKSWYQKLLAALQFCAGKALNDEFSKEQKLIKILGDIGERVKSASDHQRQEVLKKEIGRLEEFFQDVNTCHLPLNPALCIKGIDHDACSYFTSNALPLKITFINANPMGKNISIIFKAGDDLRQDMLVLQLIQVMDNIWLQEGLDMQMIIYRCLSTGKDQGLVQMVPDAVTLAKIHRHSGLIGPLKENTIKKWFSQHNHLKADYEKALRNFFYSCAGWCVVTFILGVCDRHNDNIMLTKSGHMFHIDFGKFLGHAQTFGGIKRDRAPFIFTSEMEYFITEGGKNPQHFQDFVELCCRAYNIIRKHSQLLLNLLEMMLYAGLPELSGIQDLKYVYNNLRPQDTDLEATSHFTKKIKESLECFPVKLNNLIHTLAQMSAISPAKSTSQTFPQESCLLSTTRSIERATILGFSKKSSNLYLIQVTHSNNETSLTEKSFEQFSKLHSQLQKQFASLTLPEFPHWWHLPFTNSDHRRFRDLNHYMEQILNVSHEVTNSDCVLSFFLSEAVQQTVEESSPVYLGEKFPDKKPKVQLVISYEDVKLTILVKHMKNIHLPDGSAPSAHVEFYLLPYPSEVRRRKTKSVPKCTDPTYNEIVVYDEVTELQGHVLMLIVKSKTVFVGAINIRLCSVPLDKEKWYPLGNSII
DDR2 (human), sequence (Q16832 whole entry, looked up): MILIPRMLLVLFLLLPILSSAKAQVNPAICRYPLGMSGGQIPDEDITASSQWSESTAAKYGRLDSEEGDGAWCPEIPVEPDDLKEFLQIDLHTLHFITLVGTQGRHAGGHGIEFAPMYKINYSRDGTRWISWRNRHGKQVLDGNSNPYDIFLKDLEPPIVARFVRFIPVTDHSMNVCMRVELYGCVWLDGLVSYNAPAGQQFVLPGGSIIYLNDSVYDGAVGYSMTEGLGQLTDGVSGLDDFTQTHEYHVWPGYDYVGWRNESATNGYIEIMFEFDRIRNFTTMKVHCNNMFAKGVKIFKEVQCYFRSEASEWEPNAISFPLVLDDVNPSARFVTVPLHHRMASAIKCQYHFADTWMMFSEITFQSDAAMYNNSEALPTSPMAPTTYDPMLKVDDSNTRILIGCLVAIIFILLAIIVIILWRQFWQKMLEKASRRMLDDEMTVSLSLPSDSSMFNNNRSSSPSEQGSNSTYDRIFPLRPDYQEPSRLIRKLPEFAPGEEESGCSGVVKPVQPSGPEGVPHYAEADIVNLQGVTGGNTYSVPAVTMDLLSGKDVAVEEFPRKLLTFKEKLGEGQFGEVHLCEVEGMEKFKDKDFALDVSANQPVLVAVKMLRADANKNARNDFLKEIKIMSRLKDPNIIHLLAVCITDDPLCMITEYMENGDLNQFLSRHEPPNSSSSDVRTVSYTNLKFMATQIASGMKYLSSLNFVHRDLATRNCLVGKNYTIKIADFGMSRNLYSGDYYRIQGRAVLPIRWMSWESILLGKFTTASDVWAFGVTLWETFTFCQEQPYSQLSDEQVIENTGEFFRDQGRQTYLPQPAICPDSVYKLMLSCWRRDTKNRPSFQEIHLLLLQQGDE
PLK2 (human), sequence (Q9NYY3 whole entry, looked up): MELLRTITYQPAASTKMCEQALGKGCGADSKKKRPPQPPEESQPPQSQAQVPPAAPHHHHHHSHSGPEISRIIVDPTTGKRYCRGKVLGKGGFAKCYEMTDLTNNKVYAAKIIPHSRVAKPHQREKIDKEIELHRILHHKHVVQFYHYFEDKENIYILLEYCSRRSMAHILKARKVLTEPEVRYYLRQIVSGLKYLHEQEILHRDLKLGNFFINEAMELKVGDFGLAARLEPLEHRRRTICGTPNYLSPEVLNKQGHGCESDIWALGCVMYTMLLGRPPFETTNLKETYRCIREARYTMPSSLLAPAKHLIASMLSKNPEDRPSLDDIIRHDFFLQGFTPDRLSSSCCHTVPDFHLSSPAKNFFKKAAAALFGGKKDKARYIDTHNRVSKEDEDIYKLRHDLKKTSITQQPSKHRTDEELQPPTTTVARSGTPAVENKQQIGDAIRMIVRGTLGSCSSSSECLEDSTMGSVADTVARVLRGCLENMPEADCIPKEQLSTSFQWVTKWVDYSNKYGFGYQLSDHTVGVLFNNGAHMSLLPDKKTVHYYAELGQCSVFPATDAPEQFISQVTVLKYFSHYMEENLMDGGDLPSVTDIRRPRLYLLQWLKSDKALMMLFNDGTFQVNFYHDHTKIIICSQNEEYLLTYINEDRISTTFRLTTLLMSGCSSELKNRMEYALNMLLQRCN
ERBB4 (human), sequence (Q15303 whole entry, looked up): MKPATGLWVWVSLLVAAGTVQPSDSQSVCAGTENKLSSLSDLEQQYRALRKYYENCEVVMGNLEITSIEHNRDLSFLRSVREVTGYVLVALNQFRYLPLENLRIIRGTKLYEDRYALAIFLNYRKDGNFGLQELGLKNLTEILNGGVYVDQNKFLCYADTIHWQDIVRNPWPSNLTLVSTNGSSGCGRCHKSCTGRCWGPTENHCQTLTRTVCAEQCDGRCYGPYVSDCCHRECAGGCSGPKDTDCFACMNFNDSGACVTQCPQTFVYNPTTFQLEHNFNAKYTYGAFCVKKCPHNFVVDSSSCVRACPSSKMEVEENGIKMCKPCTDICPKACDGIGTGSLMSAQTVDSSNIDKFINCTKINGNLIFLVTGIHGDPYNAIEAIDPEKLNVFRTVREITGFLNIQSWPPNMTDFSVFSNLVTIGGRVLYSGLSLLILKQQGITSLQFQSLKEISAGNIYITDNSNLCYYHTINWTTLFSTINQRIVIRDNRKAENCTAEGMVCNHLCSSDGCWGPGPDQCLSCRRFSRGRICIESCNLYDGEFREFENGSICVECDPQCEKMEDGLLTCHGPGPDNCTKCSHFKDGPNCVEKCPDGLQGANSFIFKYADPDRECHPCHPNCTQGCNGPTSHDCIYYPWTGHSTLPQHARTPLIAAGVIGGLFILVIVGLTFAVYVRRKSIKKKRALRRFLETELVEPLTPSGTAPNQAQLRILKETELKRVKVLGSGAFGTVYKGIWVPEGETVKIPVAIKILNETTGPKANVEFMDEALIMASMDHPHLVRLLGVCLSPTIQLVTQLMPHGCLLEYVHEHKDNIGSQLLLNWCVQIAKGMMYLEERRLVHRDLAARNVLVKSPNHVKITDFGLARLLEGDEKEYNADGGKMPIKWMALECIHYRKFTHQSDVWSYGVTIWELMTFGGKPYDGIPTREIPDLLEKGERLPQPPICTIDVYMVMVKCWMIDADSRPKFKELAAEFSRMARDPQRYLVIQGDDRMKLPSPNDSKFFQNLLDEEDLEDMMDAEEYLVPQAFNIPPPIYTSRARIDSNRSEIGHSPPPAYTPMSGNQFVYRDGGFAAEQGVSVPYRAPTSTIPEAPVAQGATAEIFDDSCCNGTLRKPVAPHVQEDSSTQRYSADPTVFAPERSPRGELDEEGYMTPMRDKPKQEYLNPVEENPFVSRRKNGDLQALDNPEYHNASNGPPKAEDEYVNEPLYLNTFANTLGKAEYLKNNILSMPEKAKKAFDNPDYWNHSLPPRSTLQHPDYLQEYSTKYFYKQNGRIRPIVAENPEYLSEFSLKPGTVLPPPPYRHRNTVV
CDK19 (human), sequence (Q9BWU1 whole entry, looked up): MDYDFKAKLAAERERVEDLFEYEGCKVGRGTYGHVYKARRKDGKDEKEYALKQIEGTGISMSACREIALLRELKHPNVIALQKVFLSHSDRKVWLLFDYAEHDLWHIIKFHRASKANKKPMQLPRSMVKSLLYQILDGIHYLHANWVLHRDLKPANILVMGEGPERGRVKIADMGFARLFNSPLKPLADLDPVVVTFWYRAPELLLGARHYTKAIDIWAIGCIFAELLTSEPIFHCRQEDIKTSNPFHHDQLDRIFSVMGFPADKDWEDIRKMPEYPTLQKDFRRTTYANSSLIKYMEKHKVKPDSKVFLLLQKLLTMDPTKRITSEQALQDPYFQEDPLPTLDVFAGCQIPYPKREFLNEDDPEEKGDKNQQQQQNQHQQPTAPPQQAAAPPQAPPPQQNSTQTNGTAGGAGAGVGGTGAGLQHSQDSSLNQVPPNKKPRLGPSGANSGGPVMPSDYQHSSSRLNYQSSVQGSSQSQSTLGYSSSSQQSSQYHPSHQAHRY

| SMILES | kinase still bound, per cent of control (RIPK4 (human)) [%] | kinase still bound, per cent of control (FGFR4 (human)) [%] | kinase still bound, per cent of control (ERBB2 (human)) [%] | kinase still bound, per cent of control (DAPK2 (human)) [%] | kinase still bound, per cent of control (ERBB4 (human)) [%] | kinase still bound, per cent of control [1] [%] | kinase still bound, per cent of control (MAP2K2 (human)) [%] | kinase still bound, per cent of control (RPS6KA6 KD2 (human)) [%] | kinase still bound, per cent of control (EPHB2 (human)) [%] | kinase still bound, per cent of control (MAP3K13 (human)) [%] | kinase still bound, per cent of control (FLT4 (human)) [%] | kinase still bound, per cent of control (PRKD2 (human)) [%] | kinase still bound, per cent of control [2] [%] | kinase still bound, per cent of control (PLK2 (human)) [%] | kinase still bound, per cent of control (MELK (human)) [%] | kinase still bound, per cent of control (MAK (human)) [%] | kinase still bound, per cent of control (MAP3K9 (human)) [%] | kinase still bound, per cent of control (PIK3C2G (human)) [%] | kinase still bound, per cent of control (NEK9 (human)) [%] | kinase still bound, per cent of control (CDK19 (human)) [%] | further results |
| --- | --- | --- | --- | --- | --- | --- | --- | --- | --- | --- | --- | --- | --- | --- | --- | --- | --- | --- | --- | --- | --- |
| N#Cc1cc(-c2ccnc(Nc3ccc(-n4cnc(-c5cccnc5)n4)cc3)n2)cc(N2CCOCC2)c1 | 53 | 99 | 100 | 96 | 91 | 100 | 62 | 88 | 89 | 100 | 84 | 93 | 50 | 98 | 100 | 49 | 22 | 100 | 63 | 88 | kinase still bound, per cent of control (MAP3K10 (human)): 72%; kinase still bound, per cent of control (DDR2 (human)): 100%; kinase still bound, per cent of control (CDC2L2 (human)): 25%; kinase still bound, per cent of control (DCLK3 (human)): 100%; kinase still bound, per cent of control (MAP4K3 (human)): 6.3%; kinase still bound, per cent of control (MET (human)): 24%; kinase still bound, per cent of control (SRPK3 (human)): 23%; kinase still bound, per cent of control [3]: 0.95%; kinase still bound, per cent of control (DSTYK (human)): 76%; kinase still bound, per cent of control (AURKB (human)): 57%; kinase still bound, per cent of control (RPS6KA1 KD2 (human)): 77%; kinase still bound, per cent of control (PRKD3 (human)): 100%; kinase still bound, per cent of control (STK32C (human)): 89%; kinase still bound, per cent of control (CDK5 (human)): 79%; kinase still bound, per cent of control (EPHB3 (human)): 88%; kinase still bound, per cent of control (RPS6KB1 (human)): 52%; kinase still bound, per cent of control (SNRK (human)): 90%; kinase still bound, per cent of control [4]: 0%; kinase still bound, per cent of control (MAPK1 (human)): 100%; kinase still bound, per cent of control (EGFR (human)): 71% |
| N#C/C(=C1/Nc2ccccc2S1)c1ccnc(NCCc2cccnc2)n1 | 8 | 100 | 8.5 | 34 | 63 | 85 | 17 | 52 | 100 | 100 | 100 | 100 | 72 | 47 | 100 | 100 | 74 | 8.8 | 90 | 100 | kinase still bound, per cent of control (MAP3K10 (human)): 85%; kinase still bound, per cent of control (DDR2 (human)): 100%; kinase still bound, per cent of control (CDC2L2 (human)): 85%; kinase still bound, per cent of control (DCLK3 (human)): 100%; kinase still bound, per cent of control (MAP4K3 (human)): 80%; kinase still bound, per cent of control (MET (human)): 98%; kinase still bound, per cent of control (SRPK3 (human)): 23%; kinase still bound, per cent of control [3]: 2.6%; kinase still bound, per cent of control (DSTYK (human)): 51%; kinase still bound, per cent of control (AURKB (human)): 89%; kinase still bound, per cent of control (RPS6KA1 KD2 (human)): 27%; kinase still bound, per cent of control (PRKD3 (human)): 84%; kinase still bound, per cent of control (STK32C (human)): 99%; kinase still bound, per cent of control (CDK5 (human)): 100%; kinase still bound, per cent of control (EPHB3 (human)): 100%; kinase still bound, per cent of control (RPS6KB1 (human)): 41%; kinase still bound, per cent of control (SNRK (human)): 2.7%; kinase still bound, per cent of control [4]: 45%; kinase still bound, per cent of control (MAPK1 (human)): 84% |
| COc1cc2c(Nc3ccc(NC(=O)c4ccccc4)cc3)ncnc2cc1OCCCN1CCOCC1 | 56 | 100 | 0 | 90 | 0.65 | 99 | 0.1 | 71 | 100 | 27 | 83 | 100 | 69 | 100 | 42 | 59 | 70 | 14 | 100 | 100 | kinase still bound, per cent of control (MAP3K10 (human)): 86%; kinase still bound, per cent of control (DDR2 (human)): 100%; kinase still bound, per cent of control (CDC2L2 (human)): 6.9%; kinase still bound, per cent of control (DCLK3 (human)): 96%; kinase still bound, per cent of control (MAP4K3 (human)): 70%; kinase still bound, per cent of control (SRPK3 (human)): 100%; kinase still bound, per cent of control [3]: 32%; kinase still bound, per cent of control (DSTYK (human)): 34%; kinase still bound, per cent of control (AURKB (human)): 0.15%; kinase still bound, per cent of control (RPS6KA1 KD2 (human)): 72%; kinase still bound, per cent of control (PRKD3 (human)): 100%; kinase still bound, per cent of control (STK32C (human)): 100%; kinase still bound, per cent of control (EPHB3 (human)): 100%; kinase still bound, per cent of control (RPS6KB1 (human)): 7.4%; kinase still bound, per cent of control (SNRK (human)): 81%; kinase still bound, per cent of control [4]: 72%; kinase still bound, per cent of control (MAPK1 (human)): 72%; kinase still bound, per cent of control (EGFR (human)): 0.65% |

Source: the kinase profiling compilation of Christmann-Franck et al. (2016)
